# Like-named read-outs stand apart in the source and are kept apart here.
# Legend:
# [1] = system: platelet aggregation (guinea pig PRP, extra vivo); test: Inhibitory effect of compounds on platelet aggregation in extra vivo (Table 4); set-up: species or system Hartley-strain guinea pigs; conditions: Cavia porcellus, 100 mg/kg PO, 1 h after administration
# Method: The effect of the compounds shown in Table 4 on platelet aggregation was assessed using guinea pig in extra vivo.
# Each of the test compounds was dissolved in propylene glycol so that its concentration became 100 mg/ml (dosage corresponded to 100 mg/kg) and 30 mg/ml (dosage corresponded to 30 mg/kg). The drug solution was administered either orally or subcutaneously to Hartley-strain guinea pigs (3 per group) having a body weight of 300 to 350 g. As a control, propylene glycol was administered. One hour after the administration, citrated blood was taken out by cardiac puncture, and centrifuged to obtain PRP (see Example 67).
# In the case of oral administration, the animals had been fasted overnight.
# Into a quvett set in a holder of an aggregometer and prewarmed at 37° C. with stirring, was put 450 μl of the above PRP, and then 50 μl of an aggregating agent was added. The aggregation curve was recorded for an additional 3 minutes, and an increase in light transmittance through PRP after 3 minutes (TB) was recorded (see Example 67). As a control, an increase of transmittance of PRP taken from a guinea pig group administered with propylene glycol alone (TA) was recorded in the same way above. The percent inhibitions were calculated in accordance with the following equation. [formula]
# As the aggregating agent, sodium arachidonate (a final concentraton of 0.03 mM) and a collagen suspension (a final concentration of 5 μg/ml) were used.
# The percent inhibitions in the above table are averages of three guinea pigs. For details of the above extra vivo test about inhibition of platelet aggregation, the literature references described in Example 67 may be referred to.
# [2] = system: biosynthesis of prostaglandins (microsomes of the seminal vesicle of bovine); test: Inhibitory effect on prostaglandin biosynthesis in vitro (Table 3); type: biochemical; conditions: 4 μg/ml sodium arachidonate, bioassay on rat fundus stomach strips
# Method: Sprangue-Dawley rats (male, 180-200 g) were fasted overnight, and killed by blow on the head. The stomach was isolated, and fundus stomach strips were prepared. The smooth muscle strips were perfused with Krebs-Hensleit solution (gassed with 95% O2 +5% CO2 gas) of 37° C. at a rate of […]. The Krebs-Hensleit solution contained 0.1 μg/ml of atropine, 0.1 μg/ml of phenoxybenzamine, 3 μg/ml of propranolol, 0.1 μg/ml of tripelennamine, and 0.2 μg/ml of methylsergide to prevent the effect of smooth muscle contracting substances, and 1 μg/ml of indomethacine to inhibit the biosynthesis of prostaglandin by the smooth muscles. Then, 150 μl of a reaction solution containing biologically synthesized prostaglandin was added to the perfusion solution, and the amount of the biologically synthesized prostaglandin was measured from the contraction of the smooth muscles. The contraction of the smooth muscles was recorded on a recorder using an isotonic transducer.
# The reaction solution containing biologically synthesized prostaglandin was prepared in the following manner.
# To 0.4 mg/ml of microsomes of the seminal vesicle of bovine were added 5 mM of L-tryptophan, 0.025 μM of bovine hemoglobin and 3 mμ of glutathione as cofactors. The mixture was incubated together with each of the test compounds shown in Table 4 at 37° C. for 2 minutes, and immediately then, 4 μg/ml of sodium arachidonate was added. The mixture was further incubated at 37° C. for 10 minutes, and immediately then, the prostaglandin activity of the reaction solution was measured by bioassay.
# The microsomes of the seminal vesicle of bovine had been prepared by suspending microsomes of the seminal vesicle of bovine (a product of Miles Laboratories, Inc.) in a 50 mM Tris.HCl buffer (pH 7.4) using a glass homogenizer, and stored in ice water prior to use.
# ID50 denotes the concentration of each test compound required to inhibit the biosynthesis of prostaglandins by 50%.
# [3] = system: platelet aggregation (guinea pig PRP, extra vivo); test: Inhibitory effect of compounds on platelet aggregation in extra vivo (Table 4); set-up: species or system Hartley-strain guinea pigs; conditions: Cavia porcellus, 10 mg/kg SC, 1 h after administration
# Acute toxicity (Table 6) = type: in vivo; conditions: mouse, in vivo, mice, Litchfield-Wilcoxon, read-out: LD50 (50% lethal dose)
# Method: (§1) ICR male mice with a body weight of 24 to 27 g (5 to 6 per group) were used. Each test compound was dissolved in propylene glycol in various concentrations, and administered orally (in a volume of 0.1 to 0.05 ml/10 g), subcutaneously (in a volume of 0.1 to 0.05 ml/10 g), or intraperitoneally (in a volume of 0.05 ml/10 g) to the mice. […] The LD50 (50% lethal dose) of each test compound was determined by the Litchfield-Wilcoxon method.
# (§2) The denominator indicates the number of mice used, and the numerator, the number of dead mice.
# ICR male mice = test: Acute toxicity (Table 6); type: in vivo; conditions: 10 days
# Method: as §1, §2
# carrageenan edema = test: Antiinflammatory activity (carrageenan edema of rat paw, Table 5); type: in vivo, Sprangue-Dawley (SD) male rats; conditions: 100 mg/kg orally, 3 h after 1% carrageenan
# Method: Sprangue-Dawley (SD) male rats with a body weight of 160 to 180 g, four in each group, were used. The volume of the left leg was measured, and each of the test compounds shown in Table 5 (100 mg/kg dissolved in polyethylene glycol so as to provide a volume of 2 ml/kg) was orally administered. One hour later, 0.1 ml of 1% carrageenan (dissolved in physiological saline) as an inflammation-inducing substance was subcutaneously injected to the paw of the left hind leg. A control group was orally administered with 2 ml/kg of polyethylene glycol. As a positive control, 25 mg/kg of Ibprofen was similarly administered. Three hours after the injection of 1% carrageenan, the volume of the left leg was measured, and the ratio of edema was calculated from the volume before the administration of the carrageenan. The percent inhibition of edema in comparison with the control group was determined.
# [4] = collagen 5 μg/ml, read-out: Percent inhibition of platelet aggregation, collagen
# [5] = sodium arachidonate 0.03 mM, read-out: Percent inhibition of platelet aggregation, sodium arachidonate
smiles,measurement,setting,value
"Cc1cc(C(=O)c2ccccc2)c(C)n1CC(C)O (stereo not drawn) [Compound 102, 2-(3-benzoyl-2,5-dimethylpyrrol-1-yl)-1-methylethanol]",inhibition at 100 mg/kg,[1]; [4],29 to 55%
same,inhibition at 100 mg/kg,[1]; [5],54 to 89%
same,ID50 (concentration required to inhibit the biosynthesis of prostaglandins by 50%),[2],11.9 µg/mL
same,inhibition at 10 mg/kg,[3]; [4],79%
same,inhibition at 10 mg/kg,[3]; [5],99%
same,LD50 at 240 h,"Acute toxicity (Table 6); ip, intraperitoneal",110 mg/kg
same,LD50 at 240 h,"Acute toxicity (Table 6); po, peroral",> 4000 mg/kg
same,LD50 at 240 h,"Acute toxicity (Table 6); sc, subcutaneous",> 4000 mg/kg
same,mortality (dead mice / mice used),"ICR male mice; intraperitoneal, 62.5 mg/kg",0/5
same,mortality (dead mice / mice used),"ICR male mice; intraperitoneal, 125 mg/kg",4/5
same,mortality (dead mice / mice used),"ICR male mice; intraperitoneal, 250 mg/kg",5/5
same,mortality (dead mice / mice used),"ICR male mice; intraperitoneal, 500 mg/kg",5/5
same,mortality (dead mice / mice used),"ICR male mice; peroral, 1000 mg/kg",0/6
same,mortality (dead mice / mice used),"ICR male mice; peroral, 2000 mg/kg",0/6
same,mortality (dead mice / mice used),"ICR male mice; peroral, 3000 mg/kg",0/6
same,mortality (dead mice / mice used),"ICR male mice; peroral, 4000 mg/kg",1/6
same,mortality (dead mice / mice used),"ICR male mice; subcutaneous, 4000 mg/kg",0/5
same,Percent inhibition of edema,carrageenan edema,8%

# Source: US4233309A, “Novel 1-substituted-3-acylpyrrole derivatives, platelet aggregation inhibitors containing them, as active ingredients, and processes for production of said derivatives” (Teijin Limited, priority 1977, dated 1980)
